According to patent US7868013B2, “Cycloalkyl substituted pyrimidinediamine compounds and their uses” (Rigel Pharmaceuticals, Inc., priority 2004, dated 2011):
Counter-ions that a name gives are not always drawn. Like-named read-outs stand apart in the source and are kept apart here.

How the values were obtained:
[1] = system: A549 (lung carcinoma); experiment: In vitro antiproliferation assay, A549 cells (TABLE 1 6 point assay; TABLE 2); format: cell-based; conditions: Homo sapiens
Protocol: (§1) Certain compounds were tested against other cell types for their ability to inhibit proliferation in standard antiproliferation assays.

[2] = system: H1299 (non-small cell lung carcinoma); experiment: In vitro antiproliferation assay, H1299 cells (TABLE 1 6 point assay; TABLE 2); format: cell-based
Protocol: as §1

[3] = A549, A549 cells, 6 point assay, read-out: A549, 6pt (IC50, inhibition of proliferation)
[4] = Homo sapiens, NCI-H1299, H1299 cells, 6 point assay, read-out: H1299, 6pt (IC50, inhibition of proliferation)
[5] = A549, 6 point assay, A549 cells, read-out: IC50, A549 cells
[6] = Homo sapiens, NCI-H1299, 6 point assay, H1299 cells, read-out: IC50, H1299 cells
[7] = H1299 cells, 6 point assay, read-out: H1299, 6pt (IC50, inhibition of proliferation)

| Compound | IC50 [1, 3] | IC50 [2, 4] | IC50 [1, 5] | IC50 [2, 6] | IC50 [2, 7] |
| --- | --- | --- | --- | --- | --- |
| NC(=O)C1CCCC1Nc1nc(Nc2cccc(N3CCOCC3)c2)ncc1F (centres unmarked) [compound 200, N4-(2-Carboxamidocyclopentyl)-5-fluoro-N2-(3-morpholinophenyl)-2,4-pyrimidinediamine] |  |  | 100 to 1000 nM | 1000 to 10000 nM |  |
| CN1CCN(c2ccc(Nc3ncc(F)c(NC4CCCC4C(N)=O)n3)cc2)CC1 (centres unmarked) [compound 194, N4-(2-Carboxamidocyclopentyl)-5-fluoro-N2-[4-(4-methylpiperazino)phenyl]-2,4-pyrimidinediamine] |  |  | 100 to 1000 nM | 100 to 1000 nM |  |
| COC(=O)[C@@H]1CC[C@H](Nc2nc(Nc3ccc(N4CCN(C)CC4)c(C)c3)ncc2F)C1 [compound 215, (1S,3R)-N4-(3-Methoxycarbonylcyclopent-1-yl)-5-fluoro-N2-[3-methyl-4-(4-methylpiperazin-1-yl)phenyl]-2,4-pyrimidinediamine] |  |  | 1000 to 10000 nM | 1000 to 10000 nM |  |
| CNC(=O)C1C2C=CC(C2)C1Nc1nc(Nc2ccc3c(c2)CCN3S(C)(=O)=O)ncc1F (racemic) [compound 181, Racemic-(2-exo,3-exo)-5-fluoro-N4-[3-methylaminocarbonylbicyclo[2.2.1]hept-5-en-2-yl)-N2-[1-methylsulfonyl-2,3-dihydroindol-5-yl]-2,4-pyrimidinediamine] | ≤ 100 nM | ≤ 100 nM |  |  |  |
| CN1CCN(C(=O)c2cc3cc(Nc4ncc(F)c(N[C@H]5CCC[C@H]5C(N)=O)n4)ccc3o2)CC1 (racemic) [compound 130, Racemic-cis-N4-(2-aminocarbonylcyclopent-1-yl)-5-fluoro-N2-[2-(4-methylpiperazin-1-ylcarbonyl)benzofuran-5-yl]-2,4-pyrimidinediamine] | 1000 to 10000 nM | 1000 to 10000 nM |  |  |  |
| Cc1cc(Nc2ncc(F)c(NC3CC=CC3)n2)ccc1N1CCN(C)CC1 [compound 237, N4-(Cyclopent-3-ene-1-yl)-5-fluoro-N2-[3-methyl-4-(4-methylpiperazin-1-yl)phenyl]-2,4-pyrimidinediamine] |  |  | 100 to 1000 nM | 1000 to 10000 nM |  |
| Cc1cc(Nc2ncc(F)c(N[C@H]3[C@@H](C(N)=O)[C@@H]4C=C[C@H]3C4)n2)ccc1N1CCN(C)CC1 [compound 142, (1R,2R,3S,4S)-N4-(3-Aminocarbonylbicyclo[2.2.1]hept-5-en-2-yl)-5-fluoro-N2-[3-methyl-4-(4-methylpiperazin-1-yl)phenyl]-2,4-pyrimidinediamine Sulfuric Acid Salt] |  |  |  |  | ≤ 100 nM |
| CNC(=O)C1C2C=CC(C2)C1Nc1nc(Nc2ccc3c(ccn3CCN(C)C)c2)ncc1F (racemic) [compound 183, Racemic-(2-exo,3-exo)-N2-[1-(2-dimethylaminoethyl)indol-5-yl]-5-fluoro-N4-[3-methylaminocarbonylbicyclo[2.2.1]hept-5-en-2-yl)-2,4-pyrimidinediamine] | ≤ 100 nM | ≤ 100 nM |  |  |  |
| Cc1cc(Nc2ncc(F)c(N[C@H]3C=CCC[C@H]3C(N)=O)n2)ccc1N1CCN(C)CC1 (racemic) [compound 227, Racemic-cis-N4-(2-aminocarbonylcyclohex-5-ene-1-yl)-5-fluoro-N2-[3-methyl-4-(4-methylpiperazin-1-yl)phenyl]-2,4-pyrimidinediamine] |  |  | 1000 to 10000 nM | 1000 to 10000 nM |  |
| CCOC(=O)N1CCN(c2ccc(Nc3ncc(F)c(NC4CCCC4C(N)=O)n3)cc2)CC1 (centres unmarked) [compound 199, N4-(2-Carboxamidocyclopentyl)-N2-[4-(4-ethoxycarbonylpiperazino)phenyl]-5-fluoro-2,4-pyrimidinediamine] |  |  | 100 to 1000 nM | 100 to 1000 nM |  |
| Cc1cc(Nc2ncc(F)c(N[C@H]3[C@@H](C(N)=O)[C@@H]4C=C[C@H]3C4)n2)ccc1N1CCN(C)CC1 [compound 144, (1R,2R,3S,4S)-N4-(3-Aminocarbonylbicyclo[2.2.1]hept-5-en-2-yl)-5-fluoro-N2-[3-methyl-4-(4-methylpiperazin-1-yl)phenyl]-2,4-pyrimidinediamine p- Toluenesulfonic Acid Salt] |  |  |  |  | ≤ 100 nM |
| Cc1ccc(Nc2ncc(F)c(NC3CCCC3C(N)=O)n2)cc1 (stereo not drawn) [compound 212, (cis)-N4-(2-Carboxamidocyclopent-1-yl)-5-fluoro-N2-(4-methylphenyl)-2,4-pyrimidinediamine] |  |  | 1000 to 10000 nM | 1000 to 10000 nM |  |
| Cc1cc(Nc2ncc(F)c(NC3(C(=O)NC4CC4)CC=CC3)n2)ccc1N1CCN(C)CC1 [compound 244, N4-(1-Cyclopropylaminocarbonylcyclopent-3-en-1-yl)-5-fluoro-N2-[3-methyl-4-(4-methylpiperazin-1-yl)phenyl]-2,4-pyrimidinediamine] |  |  | > 10000 nM | > 10000 nM |  |
| Cc1cc(Nc2ncc(F)c(N[C@H]3[C@@H](C(N)=O)[C@@H]4C=C[C@H]3C4)n2)ccc1N1CCN(C)CC1 [compound 139, (1R,2R,3S,4S)-N4-(3-Aminocarbonylbicyclo[2.2.1]hept-5-en-2-yl)-5-fluoro-N2-[3-methyl-4-(4-methylpiperazin-1-yl)phenyl]-2,4-pyrimidinediamine Trifluoroacetic Acid Salt] |  |  |  |  | ≤ 100 nM |
| Cc1cc(Nc2ncc(F)c(N[C@H]3[C@@H](C(N)=O)[C@@H]4C=C[C@H]3C4)n2)ccc1N1CCN(C)CC1 [compound 143, (1R,2R,3S,4S)-N4-(3-Aminocarbonylbicyclo[2.2.1]hept-5-en-2-yl)-5-fluoro-N2-[3-methyl-4-(4-methylpiperazin-1-yl)phenyl]-2,4-pyrimidinediamine (S)- Mandelic Acid Salt] |  |  |  |  | ≤ 100 nM |
| Cc1cc(Nc2ncc(F)c(N[C@H]3[C@@H](C(N)=O)[C@@H]4C=C[C@H]3C4)n2)ccc1N1CCN(C)CC1 [compound 140, (1R,2R,3S,4S)-N4-(3-Aminocarbonylbicyclo[2.2.1]hept-5-en-2-yl)-5-fluoro-N2-[3-methyl-4-(4-methylpiperazin-1-yl)phenyl]-2,4-pyrimidinediamine Methanesulfonic Acid Salt] |  |  |  |  | ≤ 100 nM |
| Cc1cc(Nc2ncc(F)c(N[C@H]3[C@@H](C(N)=O)[C@@H]4C=C[C@H]3C4)n2)ccc1N1CCN(C)CC1 [compound 141, (1R,2R,3S,4S)-N4-(3-Aminocarbonylbicyclo[2.2.1]hept-5-en-2-yl)-5-fluoro-N2-[3-methyl-4-(4-methylpiperazin-1-yl)phenyl]-2,4-pyrimidinediamine Nitric Acid Salt] |  | ≤ 100 nM |  |  |  |

Continued, in another order:

| IC50 [1, 3] | IC50 [2, 4] | IC50 [1, 5] | IC50 [2, 6] | Compound | IC50 [2, 7] |
| --- | --- | --- | --- | --- | --- |
| 100 to 1000 nM | ≤ 100 nM |  |  | Cc1ccc(Nc2ncc(F)c(NC3C4C=CC(C4)C3C(N)=O)n2)cc1OCC(=O)N1CCOCC1 (racemic) [compound 103, Racemic-(2-exo, 3-exo)-N4-(3-aminocarbonylbicyclo[2.2.1]hept-5-en-2-yl)-5-fluoro-N2-[4-methyl-3-(N-morpholinyl)carbonylmethyleneoxyphenyl]-2,4-pyrimidinediamine] |  |
|  |  | ≤ 100 nM | ≤ 100 nM | NC(=O)[C@@H]1[C@H](Nc2nc(Nc3cccc(C4CCNCC4)c3)ncc2F)[C@H]2C=C[C@@H]1C2 [compound 274, (1R,2R,3S,4S)-N4-(3-Aminocarbonylbicyclo[2.2.1]hept-5-en-2-yl)-5-fluoro-N2-[3-(piperidin-4-yl)phenyl]-2,4-pyrimidinediamine] |  |
|  |  | ≤ 100 nM | 100 to 1000 nM | NC(=O)[C@@H]1[C@H](Nc2nc(Nc3ccc(C4CCNCC4)cc3)ncc2F)[C@H]2C=C[C@@H]1C2 [compound 273, (1R,2R,3S,4S)-N4-(3-Aminocarbonylbicyclo[2.2.1]hept-5-en-2-yl)-5-fluoro-N2-[4-(piperidin-4-yl)phenyl]-2,4-pyrimidinediamine] |  |
| ≤ 100 nM | ≤ 100 nM |  |  | CN(C)CCn1ccc2cc(Nc3ncc(F)c(NC4C5C=CC(C5)C4C(=O)NC4CC4)n3)ccc21 (racemic) [compound 175, Racemic-(2-exo,3-exo)-N4-[3-cyclopropylaminocarbonylbicyclo[2.2.1]hept-5-en-2-yl)-N2-[1-(2-dimethylaminoethyl)indol-5-yl]-5-fluoro-2,4-pyrimidinediamine] |  |
| 100 to 1000 nM | 100 to 1000 nM |  |  | CN(C)CCN1CCc2cc(Nc3ncc(F)c(NC4C5C=CC(C5)C4C(N)=O)n3)ccc21 (racemic) [compound 171, Racemic-(2-exo, 3-exo)-N4-(3-aminocarbonylbicyclo[2.2.1]hept-5-en-2-yl)-5-fluoro-N2-[N-(2-dimethylaminoethyl)-2,3-dihydro-indol-5-yl]-2,4-pyrimidinediamine Bis Hydrogen Chloride Salt] |  |
|  |  | 1000 to 10000 nM | 1000 to 10000 nM | Cc1cc(Nc2ncc(F)c(NC3C4C=CC(C4)C3C(N)=O)n2)cc(C)c1N1CCN(C)CC1 (racemic) [compound 271, Racemic-(2-exo,3-exo)-N4-(3-aminocarbonylbicyclo[2.2.1]hept-5-en-2-yl)-N2-[3,5-dimethyl-4-(4-methylpiperazin-1-yl)phenyl]-5-fluoro-2,4-pyrimidinediamine] |  |
| ≤ 100 nM | 100 to 1000 nM |  |  | CN(C)CCn1ccc2ccc(Nc3ncc(F)c(NC4C5C=CC(C5)C4C(=O)NC4CC4)n3)cc21 (racemic) [compound 169, Racemic-(2-exo,3-exo)-N4-[3-cyclopropylaminocarbonylbicyclo[2.2.1]hept-5-en-2-yl)-N2-[1-(2-dimethylaminoethyl)indol-6-yl]-5-fluoro-2,4-pyrimidinediamine] |  |
| ≤ 100 nM | ≤ 100 nM |  |  | CCNC(=O)C1C2C=CC(C2)C1Nc1nc(Nc2ccc3c(c2)CCN3S(C)(=O)=O)ncc1F (racemic) [compound 182, Racemic-(2-exo,3-exo)-N4-[3-ethylaminocarbonylbicyclo[2.2.1]hept-5-en-2-yl)-5-fluoro-N2-[1-methylsulfonyl-2,3-dihydro-indol-5-yl]-2,4-pyrimidinediamine] |  |
